The text below walks through data of patent publication US4390526A, “Pharmaceutical agents for the treatment of sickle cell disease” (Yeda Research & Development Co. Ltd., priority 1979, dated 1983).

Where a SMILES comes first, the peptide text is derived from it.

One series has as its target T1, purified HbS (Homo sapiens, UniProt P68871, E7V).
T1 construct: 150 μl of 35% of purified HbS were added and vortexed; from tissue
Put plainly: Determination of antigelling property (modified method of Bookchin et al.). Format: biochemical. The conditions noted are these: deoxygenated with sodium dithionite, 37° C.; antigelling = fluid state for more than 20 minutes. The protocol:
The antigelling property of the said new class of compounds was determined by a modified method of Bookchin et al. (1967); (see Bookchin et al, J. Biol. Chem., 242, 248-255, 1967). To 10 μl of a solution of the said new class of compounds in a micro test tube, at about 37° C., 150 μl of 35% of purified HbS were added and vortexed. 15 microliters of a 10% sodium dithionite in 0.05 M phosphate buffer, pH 7.2 were added. The mixture was thoroughly mixed and flushed with nitrogen and quickly stoppered. The micro test tube was incubated at 37° C. for 30 minutes and then transferred to 0° C. for 10 minutes and then returned to 37° C. for 30 minutes. A compound was defined as having antigelling properties when the HbS inhibition mixture remained in the fluid state for a period of more than 20 minutes at 37° C.

For series [1], the system named is erythrocytes of a sickle cell disease patient. Put plainly: Inhibition of sickling. It is filed as cell-based, human. Conditions: 30 minutes, deoxygenated with sodium metabisulphite. Here is the method:
A venous blood sample was obtained from the anticubital vein of a sickle cell disease patient and washed several times with phosphate buffer saline, pH 7.2, consisting of 145.4 mM NaCl, 4.0 mM KCl, 1.65 mM Na2 HPO4, 0.16 mM KH2 PO4, 0.01 mM MgCl2 and 11.1 mM glucose. The buffy coats were removed by aspiration. […] The mixture was well stoppered, incubated at 37° C. and swirled at about 100 cycles per minute in a controlled environment incubator. The standard control consisted of a 300 μl of a 20% cell suspension in the buffer in which the novel compound was dissolved. After an incubation period, 20 μl of the treated cell suspension was deoxygenated with 20 μl of 2.0% sodium metabisulphite or with nitrogen gas and examined with a Zeiss microscope.
[…] They were deoxygenated with sodium metabisulphite and examined under a Zeiss microscope.

For series [2], the system named is erythrocytes. Conditions: literature values, Table II; cited from earlier work.
Series [3] deals with erythrocytes. The series is described as follows: Transport of the novel compounds into erythrocytes. Format: cell-based, human. The protocol:
As sickle cell disease is caused by a defect of the erythrocytes, in order to study transport of a therapeutic agent for the treatment of the disease into erythrocytes, erythrocytes and no other cells must be used for the transport studies.
Washed erythrocytes were prepared by the method described in Example 2 and used for transport studies. The novel class of compounds were radioactively labelled, using for example, [^14 C]-L-Phe.

As to `Cl.N[C@@H](Cc1c[nH]c2ccccc12)C(=O)OCc1ccccc1` [Compound 3, L--Try--OBz.HCl], on purified HbS, the “moles of compound to one mole of HbS at which gelation of HbS is inhibited” value (from here on “moles of compound … of HbS is inhibited”) is given as 4 moles to one mole HbS. Also, the “Percentage of Normal Cells” value in series [1] (0.5 mM of compound) is 95%.
As to `CC1(C)CCc2cc(CCCC(=O)O)ccc2O1` [3,4-dihydro-2,2-dimethyl 2H-1 Benzopyridirium-6-butyric acid], the “Effective Concentration In Vitro (antisickling)” value (from here on “Effective Concentration In Vitro”) with erythrocytes [2] is listed as 10 mM.
On to `O=CC(O)CO` (racemic) [DL--Glyceraldehyde], for which the “Effective Concentration In Vitro” value with erythrocytes [2] is listed as 20 mM.
Regarding `Br.NCC(=O)N[C@@H](Cc1ccccc1)C(=O)OCc1ccccc1` [Compound 10, L--Gly--L--Phe--OBz.HBr] (HELM PEPTIDE1{G.F.[c1ccc(CO[*:1])cc1]}$$$$V2.0), the “Percentage of Normal Cells” value in series [1] (3 mM of the compound) was determined as 90%.
With `Cl.N[C@H](Cc1ccccc1)C(=O)OCc1ccccc1` [Compound 16, D--Phe--OBz.HCl], at purified HbS, the “moles of compound … of HbS is inhibited” value is on record as 6 moles to one mole HbS. Also, the “Percentage of Normal Cells” value in series [1] (3 mM of the compound) came to 90%.
As to `Br.C[C@H](N)C(=O)N[C@@H](Cc1ccccc1)C(=O)OCc1ccccc1` [Compound 9, L--Ala--L--Phe--OBz.HBr], in series [1] (3 mM of the compound), the “Percentage of Normal Cells” value is listed as 90%.
The same measure, in the same setting: for `Br.NCCCC[C@H](NC(=O)[C@@H](N)Cc1c[nH]c2ccccc12)C(=O)OCc1ccccc1` [Compound 15, L--Try--Lys--OBz.HBr] (HELM PEPTIDE1{W.K.[c1ccc(CO[*:1])cc1]}$$$$V2.0) the value was 70%.
As to `N#C[O-].[K+]` [Potassium Cyanate], in the series on erythrocytes [2], the “Effective Concentration In Vitro” value is listed as 100 mM.
Turning to `Cc1ccc(S(=O)(=O)O)cc1.NC(Cc1c[nH]cn1)C(=O)OCc1ccc([N+](=O)[O-])cc1` [Compound 8, L--His--OBz (pNO2) pTS], the “Percentage of Normal Cells” value in series [1] (3 mM of the compound) is 70%.
Same read-out and setting: under `CC(C)C[C@H](N)C(=O)OCc1ccccc1` [Compound 13, L--Leu--OBz] stands 55%.
Consider `O=C(Nc1ccccn1)c1ccccc1.O=C(O)c1ccccc1` [2(Benzoyl amino) pyridinium benzoate], for which the “Effective Concentration In Vitro” value in the series on erythrocytes [2] is reported as 50 mM.
In the case of `Br.N[C@@H](Cc1ccccc1)C(=O)OCc1ccc([N+](=O)[O-])cc1` [Compound 6, L--Phe--OBz (pNO2).HBr], the “Percentage of Normal Cells” value in series [1] (3 mM of the compound) is listed as 90%.
The same measure, in the same setting: for `Br.CC(NC(=O)C(N)Cc1ccccc1)C(=O)OCc1ccccc1` [Compound 14, L--Phe--L--Ala--OBz.HBr] the value was 70%.
`CC(=O)Oc1c(Br)cc(Br)cc1C(=O)O` [Dibromo aspirin]: the “Effective Concentration In Vitro” value in the series with erythrocytes [2] is recorded as 5 mM.
With `CC(C)[C@H](N)C(=O)OCc1ccccc1` [Compound 12, L--Val--OBz], the “Percentage of Normal Cells” value in series [1] (3 mM of the compound) came to 50%.
As for `NC(N)=O` [Urea], the “Effective Concentration In Vitro” value in the series with erythrocytes [2] is recorded as 100 mM.
As to `COC(=N)CCCCC(=N)OC` [Dimethyl Adipimidate], the “Effective Concentration In Vitro” value in the series on erythrocytes [2] is 10 mM.
`Br.O=C(OCc1ccc([N+](=O)[O-])cc1)[C@@H]1CCCN1` [Compound 7, L--Pro--OBz (pNO2).HBr]: the “Percentage of Normal Cells” value in series [1] (3 mM of the compound) stood at 80%.
On the same count and under the same terms, for `N[C@@H](Cc1ccccc1)C(=O)O` [Compound 18, L--Phe, reference compound] the value was 0%; for `N[C@@H](Cc1ccccc1)C(=O)NCc1ccccc1` [Compound 11, L--Phe--Benzyl amide], 70%.
For the molecule `Cl.N[C@@H](Cc1ccccc1)C(=O)OCc1ccccc1` [Compound 1, L--Phe--OBz.HCl], the “moles of compound … of HbS is inhibited” value on purified HbS is 6 moles to one mole HbS. Further, the “Percentage of Normal Cells” value in series [1] (3 mM of the compound) is 90%. Further, in the series with erythrocytes [3], the “transport into erythrocytes” value is “rapidly transported into erythrocytes by a carrier mediated process”. The “Michaelis constant for transport” value with erythrocytes [3] (14C-labelled compound, washed erythrocytes) was found to be 0.175 mM. The “PERCENT OF INCORPORATION” value worked out at 0% in the series on erythrocytes [3] (TIME 0); 30% with erythrocytes [3] (TIME 10); 70% in the series on erythrocytes [3] (TIME 20); 90% in the series with erythrocytes [3] (TIME 30); 100% with erythrocytes [3] (TIME 45); 90% with erythrocytes [3] (TIME 60).
In the case of `Cc1ncc(CO)c(C=O)c1O` [Pyridoxal], the “Effective Concentration In Vitro” value in the series on erythrocytes [2] is reported as 20 mM.
Regarding `Cl.O=C(OCc1ccccc1)[C@@H]1CCCN1` [Compound 4, L--Pro--OBz.HCl], the “Percentage of Normal Cells” value in series [1] (3 mM of the compound) amounted to 60%.
As to `NCCSSCCN` [Cystamine], the “Effective Concentration In Vitro” value in the series with erythrocytes [2] is given as 220 mM.
For the molecule `Cl.N[C@@H](Cc1ccc(O)cc1)C(=O)OCc1ccccc1` [Compound 2, L--Tyr--OBz.HCl], the “Percentage of Normal Cells” value in series [1] (0.5 mM of compound) is given as 70%.
`CCCCCCCCCCCCCCCCCCOC(=O)[C@@H](N)Cc1ccc(O)cc1.Cl` [Compound 17, L--Tyr--O Octadecyl.HCl, reference compound]: the “Percentage of Normal Cells” value in series [1] (3 mM of the compound) stood at 10%.
